In patent publication US7939562B2, “Amphiphilic derivatives for the production of vesicles, micelles and complexants, and precursors thereof” (Ben-Gurion University of The Negev Research and Development …, priority 2001, dated 2011):

What was measured:
[1] = test system: bronchial epithelial cells; assay: Uptake of complexed DNA plasmid by cells (confocal microscope); format: cell-based; settings: DNA plasmid complexed with the amphiphile, compared to non-complexed DNA
Procedure: Purified Derivative 4 was used to complex with a DNA plasmid (purchased from Sigma Chemicals, 5 ng/microliter, stained in FITC; ULSIS Alexa Fluor® 488 Nucleic acid labeling kit) or rhodamine. The complexation was achieved by mixing the amphiphilic Derivative 4 (200 microliters containing […] of the compound) with […] of the DNA sample and letting it shake gently for a short period of time. The mixture is not sonicated to prevent vesicle formation in which the DNA is encapsulated. The sample was then incubated in a culture containing bronchial epithelial cells.

Vesicle size by TEM = format: physicochemical; parameters: unit not given here; settings: bilayer vesicles
Procedure: Two main methods were used to prepare the vesicles: In method (1), 100-200 μl of the amphiphilic derivative dissolved in methanol was injected into 2-4 ml of an aqueous solution which contained the compound to be encapsulated. The mixture was sonicated in a bath sonicator (Branson 2510) for a short (1,2,5,10 min) or long (60 min) period, depending on the desired vesicle size (dozen or hundred nanometer) and uniformity. In method (2), the amphiphilic derivative dissolved in methanol (250-1000 μl) was added to a 50-ml round-bottom flask, the solvent was removed under reduced pressure by a rotary evaporator and a thin oily film was formed on the flask bottom. An aqueous solution containing the compound desired to encapsulate (1-4 ml) was added to the flask and the mixture was sonicated in a bath sonicator for 1-5 min at 60° C.
TEM (transmission electron microscopy) experiments were carried out using negative staining technique, employing saturated uranyl acetate solution (after centrifuge). The grid was immersed in the vesicle solution for 1.5 minutes and then was stained in the uranyl acetate solution for 1.5 min. The grid (300 mesh copper Formvar/carbon) was then dried at room temperature on filter paper. […]
Derivative 10 was made into vesicles according to Example 41. […] The vesicles were purified by filtration and the presence of radioactivity in the purified sample indicated encapsulation.

[2] = test system: bronchial epithelial cells; assay: Uptake of vesicle-encapsulated 14C-methylated albumin by cells (radioactivity); format: cell-based; settings: 14C-methylated albumin encapsulated in vesicles, compared with non-encapsulated albumin
Procedure: Derivative 10 was made into vesicles according to Example 41. […] The same method was used to encapsulate ^14C-methylated albumin (purchased from Sigma Chemicals) by adding 0.2 mg of the tagged albumin. The vesicles were purified by filtration and the presence of radioactivity in the purified sample indicated encapsulation.

Row | vesicle size (Vesicle size by TEM) | Structure (SMILES) | uptake of DNA by the cells [1] | uptake of the albumin by the cells [2]
1 | – | CCCCCC(OC(=O)CN(CCCN)CCCCN)C(O)CCCCC(=O)OC (stereo not drawn) [Derivative 4] | significantly greater uptake of DNA | –
2 | 350 | CCCCCCCCCCCC[N+](C)(C)CC(=O)OC(CCCCC)C(O)C/C=C/CC(=O)NCCNC(=O)C/C=C/CC(O)C(CCCCC)OC(=O)C[N+](C)(C)CCCCCCCCCCCC (stereo not drawn) [Derivative 10] | – | significantly greater uptake of the albumin
